Laboratory results as given in patent US20250144054A1, “SMALL MOLECULE STAT3 INHIBITOR FOR TREATING TRIPLE NEGATIVE BREAST CANCER” (UNIVERSITY OF MARYLAND, BALTIMORE, priority 2022, published 2025).

Tests used:
STAT3 [1] = assay: IL-6 induced STAT3 phosphorylation, Western blot, T47D cells; type: cell-based, human; details: pretreated 2 hours serum-free, 50 ng/ml IL-6 30 minutes
Method: (A) The chemical structures of LLL12B and LLL12. The carbamate ester bond of LLL12B is hydrolytically cleaved by the tumor-associated plasmin to release LLL12. (B) SUM159 cells were seeded in a 6-well plate and treated with LLL12B for 8 hours. Cells were stained with Phospho-Stat3 (Tyr705) and DAPI (indicated by arrows). Green: P-STAT3 (Y705); Blue: DAPI. T47D (C) and MDA-MB-231 (D) breast cancer cells were pretreated with DMSO or LLL12B in a serum-free medium for 2 hours and stimulated with 50 ng/ml of IL-6, IFN-γ, or EGF for additional 30 minutes. Cells were collected and analyzed by Western blot. GAPDH served as a protein loading control.
(§1) Western blot. Cells were collected and total protein was extracted using cell lysis buffer (Cell Signaling Technology, Danvers, MA, USA). Protein concentration was determined using the Pierce BCA Protein Assay Kit (Thermo Fisher Scientific, Waltham, MA, USA) according to the manufacturer's instructions. Equal amounts of protein were separated by 10% SDS-PAGE gels and transferred to PVDF membranes. Membranes were blocked in 5% non-fat milk at room temperature and probed with specific antibodies P-STAT3 (Y705), STAT3, Cyclin D1, Cleaved Caspase-3, P-STAT1 (Y701), STAT1, P-ERK, ERK or GAPDH (1:1000, Cell Signaling Technology, Danvers, MA, USA) at 4° C. overnight. […]

STAT3 [2] = assay: Western blot of P-STAT3 (Y705), STAT3, Cyclin D1, Cleaved Caspase-3 in MDA-MB-231 cells; type: cell-based, human; details: MDA-MB-231, overnight
Method: (§2) (A) MDA-MB-231, SUM159, and 4T1 cell lines were treated with DMSO or LLL12B overnight and the expression levels of P-STAT3 (Y705), STAT3, Cyclin D1, and Cleaved Caspase-3 were analyzed by Western blot. GAPDH served as a protein loading control. (B) MDA-MB-231 cells were treated with DMSO or C188-9 overnight and the expression levels of P-STAT3 (Y705), STAT3, Cyclin D1, and Cleaved Caspase-3 were analyzed by Western blot. (C) MDA-MB-231, SUM159, and 4T1 cells were seeded in a 96-well plate and treated with DMSO or LLL12B for 5 hours and a Caspase-3/7 Fluorescence Assay Kit was used to detect the activation of caspase-3/7. (D) MDA-MB-231, SUM159, and 4T1 cell lines were treated with DMSO or LLL12B for 8-12 hours, and flow cytometry was performed to analyze annexin V and PI staining. The quantification of apoptotic cells was shown in the right panel. ** P<0.01, *** P<0.001 and ****P<0.0001.
(§3) SiRNA and transfection. STAT3 siRNA and Negative Control siRNA (Cell Signaling Technology, Danvers, MA, USA) were used to knock down STAT3 in MDA-MB-231, SUM159, and 4T1 cell lines. Cells were transfected with STAT3 siRNA or Negative Control siRNA using Lipofectamine RNAiMAX (Invitrogen, Carlsbad, CA, USA) according to the manufacturer's instructions. After 72 hours, cell viability was examined by MTT cell viability assay, and the transfection efficiency was examined by western blot.
Western blot. Cells were collected and total protein was extracted using cell lysis buffer (Cell Signaling Technology, Danvers, MA, USA). Protein concentration was determined using the Pierce BCA Protein Assay Kit (Thermo Fisher Scientific, Waltham, MA, USA) according to the manufacturer's instructions. Equal amounts of protein were separated by 10% SDS-PAGE gels and transferred to PVDF membranes. Membranes were blocked in 5% non-fat milk at room temperature and probed with specific antibodies P-STAT3 (Y705), STAT3, Cyclin D1, Cleaved Caspase-3, P-STAT1 (Y701), STAT1, P-ERK, ERK or GAPDH (1:1000, Cell Signaling Technology, Danvers, MA, USA) at 4° C. overnight. The blots were visualized using SuperSignal™ West Femto Maximum Sensitivity Substrate (Thermo Fisher Scientific, Waltham, MA, USA) and an Amersham Imager 680 (GE Healthcare Life Sciences, Marlborough, MA, USA) after incubating with horseradish peroxidase (HRP)-conjugated anti-rabbit secondary antibody (1:5000, Cell Signaling Technology, Danvers, MA, USA).

STAT3 [3] = assay: Western blot of P-STAT3 (Y705), STAT3, Cyclin D1, Cleaved Caspase-3 in 4T1 cells; type: cell-based, murine; details: 4T1, overnight, vs DMSO
Method: as §2, §3, §1

caspase-3/7 [4] = assay: Caspase-3/7 activity assay, MDA-MB-231 cells; type: cell-based, human; details: MDA-MB-231, 5 hours, vs DMSO
Method: (§4) Caspase-3/7 activity assay. The Caspase-3/7 Fluorescence Assay Kit (Cayman, Ann Arbor, MI, USA) was used to detect the activation of caspase-3/7 and the assay was performed according to the manufacturer's instructions. Briefly, MDA-MB-231, SUM159, and 4T1 cells were seeded in a 96-well plate in triplicate. After overnight incubation, cells were treated with either LLL12B or DMSO for 5 hours. Cells were lysed and processed to measure caspase-3/7 activity and the fluorescence intensity was read (excitation=485 nm; emission=535 nm).

caspase-3/7 [5] = assay: Caspase-3/7 activity assay, SUM159 cells; type: cell-based, human; details: SUM159, 5 hours, vs DMSO
Method: as §4

MDA-MB-231 cells = assay: Colony formation assay, MDA-MB-231 cells; type: cell-based, human; details: MDA-MB-231, 24 hours treatment, 7 days drug-free, vs DMSO
Method: Colony formation assay. MDA-MB-231, SUM159, and 4T1 cells were seeded in a 6-well plate at a density of 1000 cells/well and treated with DMSO or LLL12B for 24 hours, and then cultured in a drug-free culture medium for 7 days. Colonies were fixed with methanol for 30 min and stained with 1% crystal violet in 25% methanol for 2 hours at room temperature.

SUM159 cells = assay: Wound healing assay, SUM159 cells; type: cell-based, human; details: SUM159, vs DMSO
Method: Wound healing assay. MDA-MB-231, SUM159, and 4T1 cells were seeded in a 6-well plate and cultured until fully confluent. A straight scratch crossing the monolayer was created using a 200 μl pipette tip and images of scratched areas were taken. Next, cells were treated with DMSO or LLL12B. Then, images were taken until the scratch of DMSO-treated cells was closed and the relative migration (%) was calculated.
Given the relevance between cancer cell migration and metastasis, cell migration was evaluated using wound healing assay following LLL12B and Talazoparib treatment.
In FIG. 12, L: LLL12B; T: Talazoparib; L0.5:0.5 μM LLL12B; L0.25:0.25 μM LLL12B; T0.5:0.5 μM Talazoparib; T10: 10 μM Talazoparib. In FIG. 13, L: LLL12B; T: Talazoparib; L0.5:0.5μ M LLL12B; T10: 10μ M Talazoparib; T20: 20μ M Talazoparib. In FIG. 14, L: LLL12B; T: Talazoparib; L0.5:0.5μ M LLL12B; T10: 10μ M Talazoparib; T20: 20μ M Talazoparib.
L: LLL12B; A: Abemaciclib; L0.5:0.5 μM LLL12B; A2.5:2.5 μM Abemaciclib; A1: 1 μM Abemaciclib

STAT3 [6] = details: human medulloblastoma cells, refs [25,31]; cited from earlier work

## CN(C)C(=O)Oc1cccc2c1C(=O)c1cccc(S(N)(=O)=O)c1C2=O [LLL12B]
STAT3 [1]
  IL-6 induced phosphorylation of STAT3 (Y705): inhibited
STAT3 [2]
  concentration that inhibited P-STAT3 and Cyclin D1 in Western blot: 1 µM
STAT3 [2]; vs DMSO
  Cyclin D1 expression: decreased
  expression of Cleaved Caspase-3: enhanced
  phosphorylation of STAT3: decreased
STAT3 [3]
  Cyclin D1 expression: decreased
  expression of Cleaved Caspase-3: enhanced
  phosphorylation of STAT3: decreased
caspase-3/7 [4]
  activation of caspase-3/7: induced the activation
caspase-3/7 [5]
  activation of caspase-3/7: induced the activation
MDA-MB-231 cells
  colony numbers: significant reduction
SUM159 cells
  wound closure (cell migration): effectively inhibited
STAT3 [6]
  IL-6 induced STAT3 phosphorylation: inhibited
